Earlier results as cited in patent publication US20090312358A1, “METHOD FOR MANAGEMENT OF DIARRHEA” (TRUSTEES OF BOSTON UNIVERSITY, priority 2006, published 2009).
Like-named read-outs stand apart in the source and are kept apart here.

Assays:
[1] = for antidiarrheal potency relative to codeine: compared to codeine
[2] = for time to peak plasma levels: after oral administration; for elimination half-life: in vivo
[3] = repeated dosing in mice
[4] = oral
[5] = compared to methylnaltrexone

Structure (SMILES): CCOC(=O)C1(c2ccccc2)CCN(CCC(C#N)(c2ccccc2)c2ccccc2)CC1 [diphenoxylate]
- antidiarrheal potency relative to codeine [1]: fifteen
- time to peak plasma levels [2]: approximately 2 hours

Structure (SMILES): CN1CC[C@]23c4c5ccc(O)c4O[C@H]2[C@@H](O)C=C[C@H]3[C@H]1C5 [morphine]
- development of tolerance to antimotility effects [3]: not observed

Structure (SMILES): CN(C)C(=O)C(CCN1CCC(O)(c2ccc(Cl)cc2)CC1)(c1ccccc1)c1ccccc1 [loperamide, Loperamide]
- time to achieve symptomatic control of acute diarrhea ([4]; acute diarrhea): 9 to 20 h
- development of tolerance to antimotility effects [3]: two
- time to peak plasma levels [2]: 3 to 5 h
- elimination half-life [2]: 9 to 14 h

Structure (SMILES): C[C@H]1CN(C[C@H](Cc2ccccc2)C(=O)NCC(=O)O)CC[C@@]1(C)c1cccc(O)c1 [alvimopan, Alvimopan]
- potency in reversing the effects of morphine in the gastrointestinal tract relative to methylnaltrexone [5]: approximately 200 times

Structure (SMILES): C=C1CC[C@@]2(O)[C@H]3Cc4ccc(O)c5c4[C@@]2(CCN3CC2CC2)[C@H]1O5 [nalmefene, Nalmefene]
- elimination half-life [2]: approximately 11 hours

Structure (SMILES): C[N@+]1(CC2CC2)CC[C@]23c4c5ccc(O)c4O[C@H]2C(=O)CC[C@@]3(O)[C@H]1C5 [methylnaltrexone, Methylnaltrexone]
- time to restore normal bowel function ([4]; opioid bowel dysfunction): 4 to 7 h
- elimination half-life [2]: 3 h
- elimination half-life ([2]; listed as Methylnaltrexone): 2 to 3 h

Structure (SMILES): COc1ccc2c3c1O[C@H]1[C@@H](O)C=C[C@H]4[C@@H](C2)N(C)CC[C@@]341 [codeine]
- elimination half-life [2]: ~3 h

Structure (SMILES): N#CC(CCN1CCC(C(=O)O)(c2ccccc2)CC1)(c1ccccc1)c1ccccc1 [difenoxin]
- antidiarrheal potency relative to codeine [1]: seventy-seven
- antidiarrheal potency relative to diphenoxylate ([1]; compared to diphenoxylate): five
- apparent half-life of difenoxin produced by de-esterification of diphenoxylate ([2]; healthy volunteers): approximately 50 minutes
- elimination half-life [2]: 7 to 12 h

Structure (SMILES): O=C1CC[C@@]2(O)[C@H]3Cc4ccc(O)c5c4[C@@]2(CCN3CC2CC2)[C@H]1O5 [naltrexone, Naltrexone]
- time to peak plasma levels [2]: about 1 hours
